Assay results taken from patent US20250302816A1, “DISRUPTION OF EPITHELIAL BARRIERS FOR MOLECULAR DELIVERY ENHANCEMENT OR EXTRACTION OF EXTRACELLULAR FLUIDS” (The University of Nottingham, priority 2022, published 2025).

What was measured:
Type in all cases: cell-based, human
ARPE-19 cell layers = assay: Transwell drug transport across ARPE-19 cell layers with or without 3OC12-HSL; conditions: 3OC12-HSL 200 μM
Method: (§1) FIG. 1: Macromolecular therapeutics transported across ARPE-19 cell layers in the absence and presence of 3OC12-HSL transported into the basolateral chamber over a period of five hours. Permeability experiments were initiated by applying 0.5 ml of the test solutions (250 μg/ml Aflibercept/Bevacizumab/or Doxorubicin diluted in HBSS/HEPES) to the apical side of the cells (donor compartment of the Transwell) with or without 3OC12-HSL (200 μM). Drug permeability was determined by sampling the basolateral solution at regular time intervals. Data points are expressed as means±SEM, derived from three replicates in triplicate. p values of <0.05 were considered statistically significant. *, ** and *** denote p<0.05, p<0.01 and p<0.001, respectively.
Calu-3 cells obtained from American Type Culture Collection, USA were cultured using Dulbecco's Modified Eagle Medium (DMEM) supplemented with penicillin (100 U/mL), streptomycin (0.1 mg/mL), amphotericin (0.25 μg/mL), non-essential amino acids (NEM, 1%) and Fetal Bovine Serum (FBS, 10% v/v, Sigma-Aldrich, UK). The human-derived RPE cell line ARPE-19 was obtained from American Type Culture Collection. Cells were grown in Dulbecco's Modified Eagle Medium: F12 (1:1; Gibco, Invitrogen, Carlsbad, CA), including 10% inactivated fetal bovine serum, 100 units/mL penicillin, 100 μg/mL streptomycin, and 2 mM L-glutamine (Sigma-Aldrich). Caco-2 cells were grown in complete culture medium (DMEM supplemented with 17% FBS and 1% antibiotic-antimycotic solution). All cells were kept in a water-jacketed incubator (model 3546, Forma Scientific, Inc., Marietta, OH, USA) maintained at 37° C. and an atmosphere of humidified air with 5% CO2. Medium was replaced every other day until cells reached the 80-90% confluence desired for re-plating or culturing mature, polarised barrier models.
When confluent, cells were seeded on Transwell® filters (12 mm diameter, 0.4 μm pore size; Corning Life Sciences, Holland) at 10^5 cells/cm^2. […]
(§2) Three polarised epithelial in-vitro tissue models, including lung epithelium (Calu-3), retinal pigment epithelium (ARPE-19) and intestinal epithelial (Caco-2) were used to study the efficiency of 200 μM 3OC12-HSL as a paracellular permeability enhancer for three different drugs: bevacizumab, aflibercept and doxorubicin (applied concentrations 250 μg/mL). The amount of drugs transported was determined via the conversion of fluorescence intensity to amount (μg or ng), using calibration curves constructed via serial standard dilutions. […]
(§3) Permeability experiments were initiated by applying 0.5 mL of the test solutions to the apical side of the cells (donor compartment of the Transwell®). […] Drug permeability was determined by sampling the basolateral solution at regular time intervals. […]

Calu-3 cell layers = conditions: 3OC12-HSL 200 μM
Method: as §1, with “2:” for “1:”, “Calu-3” for “ARPE-19”, “absence (dashed line)” for “absence”, “presence (line)” for “presence”, “the” for “the test”
Calu-3 cells obtained from American Type Culture Collection, USA were cultured using Dulbecco's Modified Eagle Medium (DMEM) supplemented with penicillin (100 U/mL), streptomycin (0.1 mg/mL), amphotericin (0.25 μg/mL), non-essential amino acids (NEM, 1%) and Fetal Bovine Serum (FBS, 10% v/v, Sigma-Aldrich, UK). The human-derived RPE cell line ARPE-19 was obtained from American Type Culture Collection. […]
as §2, §3

Calu-3 cells = assay: MTS assay of metabolic activity / cell viability; conditions: 5 nM to 200 μM, 6 hours
Method: To assess 3OC12-HSL and C7 PQS molecules cytotoxicity on cell viability of Calu-3 cell layers and to monitor short-term cytotoxicity during experiments, Calu-3 cells were treated with 3OC12-HSL and C7 PQS, at concentrations 5 nM, 1 μM, 50 μM, 100 μM and 200 μM, for 6 hours. At the end of the treatment, cell viability (through measuring metabolic activity) of cultures was determined by chromogenic MTS assay.
The viability of Calu-3 cells was determined by a chromogenic MTS method based on the measuring of mitochondrial respiration, assessed by the reduction of 3-(4,5-dimethylthiazol-2-yl)-5-(3-carboxymethoxyphenyl)-2-(4-sulfophenyl)-2H-tetrazolium to formazan. Calu-3 cells were cultured in a 96-well plate (CellTiter 96® Aqueous, Promega) at a density of 10^4 cells per well and incubated at 37° C., 5% CO2 for 24 hours. After 24 hours, the medium was replaced with 100 μl of test compounds dissolved in HBSS and then cells were incubated for 6 hours. HBSS and Triton X-100 (0.1% v/v in HBSS) were used as the negative and positive controls respectively. Bathing solutions were then aspirated and cells washed with PBS. Then culture medium (100 μl at 37° C.) plus MTS reagent (20 μl) were added into each well and cells were incubated for 2 hours. Absorbance at 492 was measured using a Dynex absorbance microplate reader (Dynex Technologies, USA) and converted into a percentage metabolic rate.

MMP = assay: Fluorogenic MMP activity assay
Method: FIG. 5: High-throughput MMP assay (MMP Activity Assay Kit (Fluorometric-Red), Abcam #ab112147) showing the normalised accumulation slope of FRET-based signal (Ex540: Em590 nm) read at 5 minute intervals for one hour in adherent Calu-3 cells cultured in glass-bottomed 96-well plates using a SpectraMax i3x/Biomek FXPP high-throughput platform. Each experiment was conducted in triplicate (error bars). Signal accumulation over time in each well was linearly fitted and the gradient of each fit was scaled against the gradient of the relevant positive control wells, to which active MMP was added directly (mixed isoforms, […]), to obtain the normalised accumulation slope.
To investigate the involvement of MMP in the disruption of tight junctions observed in the presence of 200 μM 3OC12-HSL and C7 PQS, a fluorogenic MMP activity assay was performed, using the Amplite™ Universal Fluorimetric MMP Activity Assay Kit. This kit is designed to check the general activity of a MMP enzyme.
Following treatment with 3OC12-HSL and C7 PQS respectively, the conditioned media were collected every hour from apical chamber and MMP activity was determined by using Amplite™ Universal Fluorimetric MMP Activity Assay Kit Green Fluorescence according to the manufacturer's instructions.
A fluorogenic MMP activity assay was carried out in the same manner on further agents.

Calu-3 = assay: Further in vitro Transwell studies: enhancing translocation of 4 kDa FITC-dextran
Method: Exemplary molecules (a)-(1) investigated in coarse dose-response by FD4 delivery in Transwell culture (Calu-3). Each molecule was screened at 5 nM, 1 μM, 200 μM levels.
Each compound was screened at 200 μM level.
Each molecule was screened at 5 nM, 1 μM, 200 μM levels.

[1] = doxorubicin 250 μg/ml, after 5 hours

CCCCCCCCCC(=O)CC(=O)N[C@H]1CCOC1=O [Agent 3OC12-HSL, N-(3-oxododecanoyl) homoserine lactone]
increase of bevacizumab permeability by 3OC12-HSL (ARPE-19 cell layers; bevacizumab 250 μg/ml, at 60 minutes of exposure): 2.5 fold
enhancement of doxorubicin transport by 3OC12-HSL (ARPE-19 cell layers; [1]): 6 fold
enhancement of aflibercept transport by 3OC12-HSL (Calu-3 cell layers; aflibercept 250 μg/ml): 18 fold
enhancement of bevacizumab transport by 3OC12-HSL (Calu-3 cell layers; bevacizumab 250 μg/ml): 10 fold
enhancement of doxorubicin transport by 3OC12-HSL (Calu-3 cell layers; [1]): 17 fold
cytotoxic effect on cell viability within epithelial layers (Calu-3 cells): do not have an adverse cytotoxic effect
MMP activation in apical samples taken at one-hour intervals (MMP; 200 μM, p<0.01, no fluorescence in control samples): significant MMP activation
period over which MMP activation increased before starting to reduce (MMP; samples taken hourly from apical chamber): 4 h
Effective in enhancing translocation (Calu-3): Yes
